# Experimental data: ChEMBL document CHEMBL3045805, “Synthesis, characterization, and antimicrobial activity of some new coumarin derivatives” (Med Chem Res, 2012)
# Columns and labels:
# Staphylococcus aureus [1] = assay: Antibacterial activity against Staphylococcus aureus after 24 hr; assay type: functional
# Escherichia coli [2] = assay: Antibacterial activity against Escherichia coli after 24 hr; assay type: functional
# Escherichia coli [3] = assay: Antibacterial activity against Escherichia coli at 50 ug/ml after 24 hr by agar diffusion method; assay type: functional; settings: read-out: DIZ
# Staphylococcus aureus [4] = assay: Antibacterial activity against Staphylococcus aureus at 50 ug/ml after 24 hr by agar diffusion method; assay type: functional; settings: read-out: DIZ
# Klebsiella pneumoniae [5] = assay: Antibacterial activity against Klebsiella pneumoniae after 24 hr; assay type: functional
# Klebsiella pneumoniae [6] = assay: Antibacterial activity against Klebsiella pneumoniae at 50 ug/ml after 24 hr by agar diffusion method; assay type: functional; settings: read-out: DIZ
# Staphylococcus aureus [7] = assay: Antibacterial activity against Staphylococcus aureus at 1 ug/ml after 24 hr by agar diffusion method; settings: read-out: DIZ
# Klebsiella pneumoniae [8] = assay: Antibacterial activity against Klebsiella pneumoniae at 1 ug/ml after 24 hr by agar diffusion method; settings: read-out: DIZ
MIC (Staphylococcus aureus [1]),MIC (Escherichia coli [2]),MIC (Klebsiella pneumoniae [5]),Structure (SMILES),zone of inhibition at 50 µg/mL (Escherichia coli [3]),zone of inhibition at 50 µg/mL (Staphylococcus aureus [4]),zone of inhibition at 50 µg/mL (Klebsiella pneumoniae [6]),zone of inhibition at 1 µg/mL (Staphylococcus aureus [7]),zone of inhibition at 1 µg/mL (Klebsiella pneumoniae [8])
96.6 µg/mL,24.1 µg/mL,48.3 µg/mL,Cc1cc(=O)oc2cc(OCC(=O)NNS(=O)(=O)c3ccc(F)cc3)ccc12,12 mm,9 mm,12 mm,,
> 100 µg/mL,55.3 µg/mL,27.7 µg/mL,Cc1cc(=O)oc2cc(OCC(=O)NNS(=O)(=O)c3ccc(Cl)cc3)ccc12,12 mm,9 mm,10 mm,,
85.1 µg/mL,42.6 µg/mL,42.6 µg/mL,Cc1cc(=O)oc2cc(OCC(=O)NNS(=O)(=O)c3ccc(Br)cc3)ccc12,12 mm,14 mm,11 mm,,
> 100 µg/mL,26 µg/mL,52 µg/mL,Cc1cc(=O)oc2cc(OCC(=O)NNS(=O)(=O)c3cccc([N+](=O)[O-])c3)ccc12,13 mm,10 mm,14 mm,,

# Further lines, the compound ahead of its results:
Structure (SMILES),MIC (Staphylococcus aureus [1]),MIC (Escherichia coli [2]),MIC (Klebsiella pneumoniae [5]),zone of inhibition at 50 µg/mL (Escherichia coli [3]),zone of inhibition at 50 µg/mL (Staphylococcus aureus [4]),zone of inhibition at 50 µg/mL (Klebsiella pneumoniae [6]),zone of inhibition at 1 µg/mL (Staphylococcus aureus [7]),zone of inhibition at 1 µg/mL (Klebsiella pneumoniae [8])
COc1ccc2c(CNc3ccc4c(C)cc(=O)oc4c3)cc(=O)oc2c1,91.9 µg/mL,45.9 µg/mL,22.9 µg/mL,12 mm,10 mm,20 mm,,
COc1ccc2c(CNc3ccc4c(C)cc(=O)oc4c3)c(Br)c(=O)oc2c1,92.8 µg/mL,46.4 µg/mL,46.4 µg/mL,11 mm,10 mm,14 mm,,
CCOC(=O)c1oc2cc(OC)ccc2c1CNc1ccc2c(C)cc(=O)oc2c1,> 100 µg/mL,51.6 µg/mL,25.8 µg/mL,11 mm,11 mm,14 mm,,
Cc1ccc(S(=O)(=O)NNC(=O)COc2ccc3c(C)cc(=O)oc3c2)cc1,98.4 µg/mL,98.4 µg/mL,49.2 µg/mL,11 mm,10 mm,10 mm,,
Cc1cc(=O)oc2cc(OCC(=O)NNS(=O)(=O)c3ccc(C(F)(F)F)cc3)ccc12,89.1 µg/mL,44.5 µg/mL,44.5 µg/mL,13 mm,11 mm,15 mm,,
Cc1cc(=O)oc2cc(OCC(=O)NNc3ccnc4c(Cl)cccc34)ccc12,> 100 µg/mL,28.9 µg/mL,57.8 µg/mL,13 mm,10 mm,13 mm,,
O=C(O)c1cn(C2CC2)c2cc(N3CCNCC3)c(F)cc2c1=O [CIPROFLOXACIN],0.6 µg/mL,0.6 µg/mL,1.3 µg/mL,,,,24 mm,20 mm
